Molecular target: T1, Recombinant human JARID1B/KDM5B (Homo sapiens, UniProt Q9UGL1)
T1 construct: purchased Active Motif 31432; host or cells: Sf9 insect cells
Experiment: LANCE Ultra TR-FRET JARID1B (KDM5B) demethylase inhibition assay
Format: biochemical
Settings: 0.1 uM of test-compounds, FLAG-JARID1B, 500 nM biotinylated H3K4me3 peptide substrate, 30 min at room temperature
In short: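 FLAG-tagged JARID1B from Sf9 cells, pre-incubated 5 min with 0.1 uM compound (1% DMSO), then 500 nM biotinylated H3K4me3 peptide, 500 uM 2-OG, 25 uM Fe(II), 2 mM ascorbate in pH 7.5 Hepes buffer. After 30 min at room temperature, H3K4me2/1 product detected by TR-FRET (665/590 nm ratio).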

T1 sequence (Q9UGL1 whole entry): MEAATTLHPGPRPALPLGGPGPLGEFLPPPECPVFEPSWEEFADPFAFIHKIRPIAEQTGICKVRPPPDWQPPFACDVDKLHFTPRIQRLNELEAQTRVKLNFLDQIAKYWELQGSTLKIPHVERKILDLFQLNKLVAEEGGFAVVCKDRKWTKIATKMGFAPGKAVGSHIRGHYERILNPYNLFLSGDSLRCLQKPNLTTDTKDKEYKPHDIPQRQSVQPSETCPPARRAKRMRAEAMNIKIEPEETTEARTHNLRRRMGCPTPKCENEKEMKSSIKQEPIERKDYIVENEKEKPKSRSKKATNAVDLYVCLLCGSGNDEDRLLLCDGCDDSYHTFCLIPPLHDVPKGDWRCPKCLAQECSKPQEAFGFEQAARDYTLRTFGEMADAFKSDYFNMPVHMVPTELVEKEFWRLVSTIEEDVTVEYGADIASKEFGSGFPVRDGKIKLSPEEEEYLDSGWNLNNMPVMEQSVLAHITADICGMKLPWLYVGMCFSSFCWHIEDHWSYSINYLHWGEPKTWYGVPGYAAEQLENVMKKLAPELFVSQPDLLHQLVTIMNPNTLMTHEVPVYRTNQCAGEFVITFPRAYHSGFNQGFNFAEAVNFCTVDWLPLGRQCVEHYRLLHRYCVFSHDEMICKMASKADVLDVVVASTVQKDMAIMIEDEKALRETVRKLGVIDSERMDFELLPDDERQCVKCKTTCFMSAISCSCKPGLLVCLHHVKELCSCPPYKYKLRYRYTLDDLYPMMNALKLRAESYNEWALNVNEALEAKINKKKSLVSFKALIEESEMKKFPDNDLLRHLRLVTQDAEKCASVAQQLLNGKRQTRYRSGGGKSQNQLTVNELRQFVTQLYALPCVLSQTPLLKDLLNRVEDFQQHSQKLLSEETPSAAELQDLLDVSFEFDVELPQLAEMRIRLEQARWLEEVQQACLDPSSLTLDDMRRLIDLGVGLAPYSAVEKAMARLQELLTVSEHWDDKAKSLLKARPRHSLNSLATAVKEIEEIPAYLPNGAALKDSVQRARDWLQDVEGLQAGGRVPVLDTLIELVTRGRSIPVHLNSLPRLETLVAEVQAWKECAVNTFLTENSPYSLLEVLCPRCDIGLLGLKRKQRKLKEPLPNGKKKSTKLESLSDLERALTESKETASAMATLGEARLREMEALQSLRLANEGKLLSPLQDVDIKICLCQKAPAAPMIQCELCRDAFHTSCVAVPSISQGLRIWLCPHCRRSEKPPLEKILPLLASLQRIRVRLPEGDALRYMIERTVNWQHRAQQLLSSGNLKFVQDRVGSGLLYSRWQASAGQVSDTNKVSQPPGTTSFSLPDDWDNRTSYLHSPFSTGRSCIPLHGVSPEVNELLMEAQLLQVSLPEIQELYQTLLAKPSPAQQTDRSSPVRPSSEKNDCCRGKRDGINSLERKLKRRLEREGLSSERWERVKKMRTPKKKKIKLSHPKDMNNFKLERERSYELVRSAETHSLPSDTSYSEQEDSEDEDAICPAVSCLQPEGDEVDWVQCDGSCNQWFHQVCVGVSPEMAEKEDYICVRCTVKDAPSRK

| inhibition at 0.1 µM | SMILES |
| --- | --- |
| < 20% | O=c1[nH]c(COc2ccc(F)c(Cl)c2)nc2c(-c3cccc(Cl)n3)nccc12 [Compound 114, 2-((3-chloro-4-fluorophenoxy)methyl)-8-(6-chloropyridin-2-yl)pyrido[3,4-d]pyrimidin-4(3H)-one] |
| < 20% | CC1CCN(c2cccc(-c3nccc4c(=O)[nH]c(COc5ccc(F)c(Cl)c5)nc34)n2)CC1 [Compound 115, 2-((3-chloro-4-fluorophenoxy)methyl)-8-(6-(4-methylpiperidin-1-yl)pyridin-2-yl)pyrido[3,4-d]pyrimidin-4(3H)-one] |
| < 20% | O=c1[nH]c(COc2ccc(F)c(Cl)c2)nc2c(-c3cccc(N4CCOCC4)n3)nccc12 [Compound 116, 2-((3-chloro-4-fluorophenoxy)methyl)-8-(6-morpholinopyridin-2-yl)pyrido[3,4-d]pyrimidin-4(3H)-one] |
| 20 to 50% | CCN(CC)CCCC(C)Nc1nc(-c2nccc3c(=O)[nH]c(COc4ccc(F)c(Cl)c4)nc23)cs1 (stereo not drawn) [Compound 118, 2-((3-chloro-4-fluorophenoxy)methyl)-8-(2-((5-(diethylamino)pentan-2-yl)amino)thiazol-4-yl)pyrido[3,4-d]pyrimidin-4(3H)-one] |
| 20 to 50% | O=c1[nH]c(COc2ccc(F)c(Cl)c2)nc2c(-c3csc(NCCCCN4CCCC4)n3)nccc12 [Compound 119, 2-((3-chloro-4-fluorophenoxy)methyl)-8-(2-((4-(pyrrolidin-1-yl)butyl)amino)thiazol-4-yl)pyrido[3,4-d]pyrimidin-4(3H)-one] |
| 20 to 50% | CC(C)N(CCCCCNc1nc(-c2nccc3c(=O)[nH]c(COc4ccc(F)c(Cl)c4)nc23)cs1)C(C)C [Compound 120, 2-((3-chloro-4-fluorophenoxy)methyl)-8-(2-((5-(diisopropylamino)pentyl)amino)thiazol-4-yl)pyrido[3,4-d]pyrimidin-4(3H)-one] |
| 20 to 50% | CCC[C@H](CO)Nc1nc(-c2nccc3c(=O)[nH]c(COc4ccc(F)c(Cl)c4)nc23)cs1 [Compound 121, (R)-2-((3-chloro-4-fluorophenoxy)methyl)-8-(2-((1-hydroxypentan-2-yl)amino)thiazol-4-yl)pyrido[3,4-d]pyrimidin-4(3H)-one] |
| < 20% | CCOC(=O)c1nc(-c2nccc3c(=O)[nH]c(COc4ccc(F)c(Cl)c4)nc23)cs1 [Compound 122, ethyl 4-(2-((3-chloro-4-fluorophenoxy)methyl)-4-oxo-3,4-dihydropyrido[3,4-d]pyrimidin-8-yl)thiazole-2-carboxylate] |
| < 20% | CC(CNc1nc(-c2nccc3c(=O)[nH]c(COc4ccc(F)c(Cl)c4)nc23)cs1)Oc1ccccc1 (stereo not drawn) [Compound 123, 2-((3-chloro-4-fluorophenoxy)methyl)-8-(2-((2-phenoxypropyl)amino)thiazol-4-yl)pyrido[3,4-d]pyrimidin-4(3H)-one] |
| < 20% | O=C(Nc1nc(-c2nccc3c(=O)[nH]c(COc4ccc(F)c(Cl)c4)nc23)cs1)c1ccccc1 [Compound 124, N-(4-(2-((3-chloro-4-fluorophenoxy)methyl)-4-oxo-3,4-dihydropyrido[3,4-d]pyrimidin-8-yl)thiazol-2-yl)benzamide] |
| ≥ 50% | O=c1[nH]c(COc2ccc(F)cc2)nc2c(-c3csc(NCCO)n3)nccc12 [Compound 125, 2-((4-fluorophenoxy)methyl)-8-(2-((2-hydroxyethyl)amino)thiazol-4-yl)pyrido[3,4-d]pyrimidin-4(3H)-one] |
| ≥ 50% | CN(C)CCNc1nc(-c2nccc3c(=O)[nH]c(COc4ccc(F)cc4)nc23)cs1 [Compound 126, 8-(2-((2-(dimethylamino)ethyl)amino)thiazol-4-yl)-2-((4-fluorophenoxy)methyl) pyrido[3,4-d]pyrimidin-4(3H)-one] |
| ≥ 50% | CN1CCC(Nc2nc(-c3nccc4c(=O)[nH]c(COc5ccc(F)cc5)nc34)cs2)CC1 [Compound 127, 2-((4-fluorophenoxy)methyl)-8-(2-((1-methylpiperidin-4-yl)amino)thiazol-4-yl)pyrido[3,4-d]pyrimidin-4(3H)-one] |
| < 20% | O=c1[nH]c(COc2ccc(F)cc2)nc2c(-c3csc(NC4CCN(Cc5ccccc5)CC4)n3)nccc12 [Compound 128, 8-(2-((1-benzylpiperidin-4-yl)amino)thiazol-4-yl)-2-((4-fluorophenoxy)methyl) pyrido[3,4-d]pyrimidin-4(3H)-one] |
| < 20% | O=c1[nH]c(COc2cc(F)cc(F)c2)nc2c(-c3csc(NCCO)n3)nccc12 [Compound 129, 2-((3,5-difluorophenoxy)methyl)-8-(2-((2-hydroxyethyl)amino)thiazol-4-yl)pyrido[3,4-d]pyrimidin-4(3H)-one] |
| ≥ 50% | CN(C)CCNc1nc(-c2nccc3c(=O)[nH]c(COc4cc(F)cc(F)c4)nc23)cs1 [Compound 130, 2-((3,5-difluorophenoxy)methyl)-8-(2-((2-(dimethylamino)ethyl)amino)thiazol-4-yl)pyrido[3,4-d]pyrimidin-4(3H)-one] |
| ≥ 50% | CN1CCC(Nc2nc(-c3nccc4c(=O)[nH]c(COc5cc(F)cc(F)c5)nc34)cs2)CC1 [Compound 131, 2-((3,5-difluorophenoxy)methyl)-8-(2-((1-methylpiperidin-4-yl)amino)thiazol-4-yl)pyrido[3,4-d]pyrimidin-4(3H)-one] |

| inhibition at 0.1 µM | SMILES |
| --- | --- |
| 20 to 50% | O=c1[nH]c(COc2ccccc2Cl)nc2c(-c3csc(NCCO)n3)nccc12 [Compound 132, 2-((2-chlorophenoxy)methyl)-8-(2-((2-hydroxyethyl)amino)thiazol-4-yl)pyrido[3,4-d]pyrimidin-4(3H)-one] |
| 20 to 50% | O=c1[nH]c(COc2cccc(Cl)c2)nc2c(-c3csc(NCCO)n3)nccc12 [Compound 133, 2-((3-chlorophenoxy)methyl)-8-(2-((2-hydroxyethyl)amino)thiazol-4-yl)pyrido[3,4-d]pyrimidin-4(3H)-one] |
| 20 to 50% | O=c1[nH]c(COc2cc(Cl)cc(Cl)c2)nc2c(-c3csc(NCCO)n3)nccc12 [Compound 134, 2-((3,5-dichlorophenoxy)methyl)-8-(2-((2-hydroxyethyl)amino)thiazol-4-yl)pyrido[3,4-d]pyrimidin-4(3H)-one] |
| 20 to 50% | O=c1[nH]c(COc2ccc(Cl)cc2Cl)nc2c(-c3csc(NCCO)n3)nccc12 [Compound 135, 2-((2,4-dichlorophenoxy)methyl)-8-(2-((2-hydroxyethyl)amino)thiazol-4-yl)pyrido[3,4-d]pyrimidin-4(3H)-one] |
| ≥ 50% | O=c1[nH]c(COc2ccc(Cl)c(Cl)c2)nc2c(-c3csc(NCCO)n3)nccc12 [Compound 136, 2-((3,4-dichlorophenoxy)methyl)-8-(2-((2-hydroxyethyl)amino)thiazol-4-yl)pyrido[3,4-d]pyrimidin-4(3H)-one] |
| < 20% | Cc1nc2c(-c3csc(NCCO)n3)nccc2c(=O)[nH]1 [Compound 137, 8-(2-((2-hydroxyethyl)amino)thiazol-4-yl)-2-methylpyrido [3,4-d]pyrimidin-4(3H)-one] |
| < 20% | CC(C)c1nc2c(-c3csc(NCCO)n3)nccc2c(=O)[nH]1 [Compound 138, 8-(2-((2-hydroxyethyl)amino)thiazol-4-yl)-2-isopropylpyrido[3,4-d]pyrimidin-4(3H)-one] |
| < 20% | O=c1[nH]c(Cc2ccccc2)nc2c(-c3csc(NCCO)n3)nccc12 [Compound 139, 2-benzyl-8-(2-((2-hydroxyethyl)amino)thiazol-4-yl)pyrido[3,4-d]pyrimidin-4(3H)-one] |
| 20 to 50% | CN(C)CCNc1nc(-c2nccc3c(=O)[nH]c(Cc4ccccc4)nc23)cs1 [Compound 140, 2-benzyl-8-(2-((2-(dimethylamino)ethyl)amino)thiazol-4-yl)pyrido[3,4-d]pyrimidin-4(3H)-one] |
| < 20% | CC(c1ccccc1)c1nc2c(-c3csc(NCCO)n3)nccc2c(=O)[nH]1 (stereo not drawn) [Compound 141, 8-(2-((2-hydroxyethyl)amino)thiazol-4-yl)-2-(1-phenylethyl)pyrido[3,4-d]pyrimidin-4(3H)-one] |
| 20 to 50% | O=c1[nH]c(COCc2ccccc2)nc2c(-c3csc(NCCO)n3)nccc12 [Compound 142, 2-((benzyloxy)methyl)-8-(2-((2-hydroxyethyl)amino)thiazol-4-yl)pyrido[3,4-d]pyrimidin-4(3H)-one] |
| 20 to 50% | CCC(O)CNc1nc(-c2nccc3c(=O)[nH]c(COCc4ccccc4)nc23)cs1 (stereo not drawn) [Compound 143, 2-((benzyloxy)methyl)-8-(2-((2-hydroxybutyl)amino)thiazol-4-yl)pyrido[3,4-d]pyrimidin-4(3H)-one] |
| < 20% | O=c1[nH]c(COCc2ccccc2)nc2c(-c3csc(NC4CCN(Cc5ccccc5)CC4)n3)nccc12 [Compound 144, 2-((benzyloxy)methyl)-8-(2-((1-benzylpiperidin-4-yl)amino)thiazol-4-yl)pyrido[3,4-d]pyrimidin-4(3H)-one] |
| < 20% | O=c1[nH]c(COCc2ccccc2)nc2c(-c3csc(NCC4CCN(Cc5ccccc5)CC4)n3)nccc12 [Compound 145, 2-((benzyloxy)methyl)-8-(2-(((1-benzylpiperidin-4-yl)methyl)amino)thiazol-4-yl)pyrido[3,4-d]pyrimidin-4(3H)-one] |
| < 20% | COCCNc1nc(-c2nccc3c(=O)[nH]c(COCc4ccccc4)nc23)cs1 [Compound 146, 2-((benzyloxy)methyl)-8-(2-((2-methoxyethyl)amino)thiazol-4-yl)pyrido[3,4-d]pyrimidin-4(3H)-one] |
| < 20% | O=c1[nH]c(COCc2ccccc2)nc2c(-c3csc(NCCCO)n3)nccc12 [Compound 147, 2-((benzyloxy)methyl)-8-(2-((3-hydroxypropyl)amino)thiazol-4-yl)pyrido[3,4-d]pyrimidin-4(3H)-one] |
